# Experimental data published in patent US8946223B2, “Substituted hydroxamic acids and uses thereof” (Millennium Pharmaceuticals, Inc., priority 2010, dated 2015).
# Target: T1, purified human HDAC6 (Homo sapiens, UniProt Q9UBN7)
# T1 construct: purchased BPS Bioscience 5006
# T1 sequence (Q9UBN7 1-1215): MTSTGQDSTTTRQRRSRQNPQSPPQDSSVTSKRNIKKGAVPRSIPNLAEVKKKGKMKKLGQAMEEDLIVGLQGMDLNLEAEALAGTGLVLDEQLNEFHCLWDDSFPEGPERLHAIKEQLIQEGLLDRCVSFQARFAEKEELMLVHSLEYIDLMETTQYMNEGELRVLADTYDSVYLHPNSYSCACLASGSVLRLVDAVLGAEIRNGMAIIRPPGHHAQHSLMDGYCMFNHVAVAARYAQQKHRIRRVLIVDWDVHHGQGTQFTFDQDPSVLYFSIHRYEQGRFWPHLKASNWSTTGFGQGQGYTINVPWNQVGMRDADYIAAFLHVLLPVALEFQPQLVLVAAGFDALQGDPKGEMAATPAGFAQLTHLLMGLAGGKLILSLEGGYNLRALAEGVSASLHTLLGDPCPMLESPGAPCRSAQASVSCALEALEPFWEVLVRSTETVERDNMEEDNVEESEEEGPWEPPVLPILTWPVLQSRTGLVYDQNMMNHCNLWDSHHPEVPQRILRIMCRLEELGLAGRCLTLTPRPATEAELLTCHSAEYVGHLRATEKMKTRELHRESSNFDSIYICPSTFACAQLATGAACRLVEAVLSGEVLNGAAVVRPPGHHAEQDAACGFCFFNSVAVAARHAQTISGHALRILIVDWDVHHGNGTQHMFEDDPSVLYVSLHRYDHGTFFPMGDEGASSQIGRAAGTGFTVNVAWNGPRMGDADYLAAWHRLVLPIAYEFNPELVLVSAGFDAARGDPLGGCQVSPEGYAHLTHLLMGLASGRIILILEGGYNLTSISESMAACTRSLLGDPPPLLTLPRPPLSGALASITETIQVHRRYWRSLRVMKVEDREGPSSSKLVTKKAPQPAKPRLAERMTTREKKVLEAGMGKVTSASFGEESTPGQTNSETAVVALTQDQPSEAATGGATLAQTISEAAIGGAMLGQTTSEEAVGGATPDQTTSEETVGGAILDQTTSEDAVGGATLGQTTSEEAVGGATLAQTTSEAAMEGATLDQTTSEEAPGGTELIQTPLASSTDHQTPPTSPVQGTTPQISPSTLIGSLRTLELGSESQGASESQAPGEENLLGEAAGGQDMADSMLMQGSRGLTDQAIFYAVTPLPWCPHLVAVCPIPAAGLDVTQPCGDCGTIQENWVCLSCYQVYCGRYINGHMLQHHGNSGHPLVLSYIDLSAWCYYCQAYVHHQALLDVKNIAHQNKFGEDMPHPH
# Assay: HDAC6 enzyme assay
# Format: biochemical
# Conditions: bin: less than 100 nM
# Description: To measure the inhibition of HDAC6 activity, purified human HDAC6 (BPS Bioscience; Cat. No. 5006) is incubated with substrate Ac-Arg-Gly-Lys(Ac)-AMC peptide (Bachem Biosciences; Cat. No. I-1925) for 1 hour at 30° C. in the presence of test compounds or vehicle DMSO control. The reaction is stopped with the HDAC inhibitor trichostatin A (Sigma; Cat. No. T8552) and the amount of Arg-Gly-Lys-AMC generated is quantitated by digestion with trypsin (Sigma; Cat. No. T1426) and subsequent measurement of the amount of AMC released using a fluorescent plate reader (Pherastar; BMG Technologies) set at Ex 340 nm and Em 460 nm. Concentration response curves are generated by calculating the fluorescence increase in test compound-treated samples relative to DMSO-treated controls, and enzyme inhibition (IC50) values are determined from those curves.
row,Compound,IC50
1,"Cc1ccc2[nH]c(C(=O)N3CCn4cc(C(=O)NO)cc4C3)cc2c1 [Compound I-22, N-hydroxy-2-[(5-methyl-1H-indol-2-yl)carbonyl]-1,2,3,4-tetrahydropyrrolo[1,2-a]pyrazine-7-carboxamide]",< 100 nM
2,"Cc1ccc2[nH]c(C(=O)N3CCn4cc(C(=O)NO)cc4C3)c(C)c2c1 [Compound I-28, 2-[(3,5-dimethyl-1H-indol-2-yl)carbonyl]-N-hydroxy-1,2,3,4-tetrahydropyrrolo[1,2-a]pyrazine-7-carboxamide]",< 100 nM
3,"Cn1c(C(=O)N2CCn3cc(C(=O)NO)cc3C2)cc(Cl)c1Cl [Compound I-91, 2-[(4,5-dichloro-1-methyl-1H-pyrrol-2-yl)carbonyl]-N-hydroxy-1,2,3,4-tetrahydropyrrolo[1,2-a]pyrazine-7-carboxamide]",< 100 nM
4,"COc1ccc(C(=O)N2CCn3cc(C(=O)NO)cc3C2)cc1 [Compound I-68, N-hydroxy-2-(4-methoxybenzoyl)-1,2,3,4-tetrahydropyrrolo[1,2-a]pyrazine-7-carboxamide]",< 100 nM
5,"O=C(NO)c1cn2c(n1)CN(C(=O)c1cc3ccccc3s1)CC2 [Compound I-44, 7-(1-benzothien-2-ylcarbonyl)-N-hydroxy-5,6,7,8-tetrahydroimidazo[1,2-a]pyrazine-2-carboxamide]",< 100 nM
6,"O=C(NO)c1cc2n(c1)CCN(C(=O)c1csc3ccccc13)C2 [Compound I-10, 2-(1-benzothien-3-ylcarbonyl)-N-hydroxy-1,2,3,4-tetrahydropyrrolo[1,2-a]pyrazine-7-carboxamide]",< 100 nM
7,"O=C(NO)c1cc2n(c1)CCN(C(=O)c1c[nH]c3ccccc13)C2 [Compound I-75, N-hydroxy-2-(1H-indol-3-ylcarbonyl)-1,2,3,4-tetrahydropyrrolo[1,2-a]pyrazine-7-carboxamide]",< 100 nM
8,"O=C(NO)c1cc2n(c1)CCN(Cc1ccccc1)C2=O [Compound I-42, 2-benzyl-N-hydroxy-1-oxo-1,2,3,4-tetrahydropyrrolo[1,2-a]pyrazine-7-carboxamide]",< 100 nM
9,"Cn1ccc2cc(C(=O)N3CCn4cc(C(=O)NO)cc4C3)ccc21 [Compound I-89, N-hydroxy-2-[(1-methyl-1H-indol-5-yl)carbonyl]-1,2,3,4-tetrahydropyrrolo[1,2-a]pyrazine-7-carboxamide]",< 100 nM

# Same assay, conditions: bins: greater than 1 μM and less than 10 μM; greater than 10 μM
row,Compound,IC50
1,"Cc1c(C(=O)N2CCCn3cc(C(=O)NO)cc3C2)cnn1-c1ccccc1 [Compound I-7, N-hydroxy-2-[(5-methyl-1-phenyl-1H-pyrazol-4-yl)carbonyl]-2,3,4,5-tetrahydro-1H-pyrrolo[1,2-a][1,4]diazepine-8-carboxamide]",1000 to 10000 nM
2,"O=C(NO)c1cc2n(n1)CCN(C(=O)CCc1ccccc1)C2 [Compound I-106, N-hydroxy-5-(3-phenylpropanoyl)-4,5,6,7-tetrahydropyrazolo[1,5-a]pyrazine-2-carboxamide]",1000 to 10000 nM
3,"O=C(NO)c1cc2n(n1)CCN(C(=O)C13CC4CC(CC(C4)C1)C3)C2 [Compound I-16, 5-(1-adamantylcarbonyl)-N-hydroxy-4,5,6,7-tetrahydropyrazolo[1,5-a]pyrazine-2-carboxamide]",1000 to 10000 nM
4,"O=C(NO)c1cc2n(c1)CCN(C(=O)c1cnn(-c3ccccc3)c1C(F)(F)F)C2 [Compound I-64, N-hydroxy-2-{[1-phenyl-5-(trifluoromethyl)-1H-pyrazol-4-yl]carbonyl}-1,2,3,4-tetrahydropyrrolo[1,2-a]pyrazine-7-carboxamide]",1000 to 10000 nM
5,"O=C(NO)c1cc2n(n1)CCCN(C(=O)c1cc3ccccc3s1)C2 [Compound I-98, 5-(1-benzothien-2-ylcarbonyl)-N-hydroxy-5,6,7,8-tetrahydro-4H-pyrazolo[1,5-a][1,4]diazepine-2-carboxamide]",1000 to 10000 nM
6,"Cc1onc(-c2ccccc2)c1NC(=O)N1CCn2cc(C(=O)NO)nc2C1 [Compound I-122, N2-hydroxy-N7-(5-methyl-3-phenylisoxazol-4-yl)-5,6-dihydroimidazo[1,2-a]pyrazine-2,7(8H)-dicarboxamide]",1000 to 10000 nM
7,"O=C(NO)c1cn2c(n1)CN(C(=O)C13CC4CC(CC(C4)C1)C3)CC2 [Compound I-27, 7-[1-adamantylcarbonyl]-N-hydroxy-5,6,7,8-tetrahydroimidazo[1,2-a]pyrazine-2-carboxamide]",1000 to 10000 nM
8,"Cn1cccc1C(=O)N1CCCn2nc(C(=O)NO)cc2C1 [Compound I-71, N-hydroxy-5-[(1-methyl-1H-pyrrol-2-yl)carbonyl]-5,6,7,8-tetrahydro-4H-pyrazolo[1,5-a][1,4]diazepine-2-carboxamide]",> 10000 nM
9,"Cc1cc(C(=O)N2CCCn3cc(C(=O)NO)cc3C2)c(C)o1 [Compound I-4, 2-(2,5-dimethyl-3-furoyl)-N-hydroxy-2,3,4,5-tetrahydro-1H-pyrrolo[1,2-a][1,4]diazepine-8-carboxamide]",> 10000 nM
10,"CCOCCN1CCn2nc(C(=O)NO)cc2C1=O [Compound I-88, 5-(2-ethoxyethyl)-N-hydroxy-4-oxo-4,5,6,7-tetrahydropyrazolo[1,5-a]pyrazine-2-carboxamide]",1000 to 10000 nM
11,"O=C(NO)c1cc2n(c1)CCCN(C(=O)C13CC4CC(CC(C4)C1)C3)C2 [Compound I-38, 2-[1-adamantylcarbonyl]-N-hydroxy-2,3,4,5-tetrahydro-1H-pyrrolo[1,2-a][1,4]diazepine-8-carboxamide]",1000 to 10000 nM
12,"Cc1oc(-c2ccccc2)nc1CC(=O)N1CCn2cc(C(=O)NO)cc2C1 [Compound I-82, N-hydroxy-2-[(5-methyl-2-phenyl-1,3-oxazol-4-yl)acetyl]-1,2,3,4-tetrahydropyrrolo[1,2-a]pyrazine-7-carboxamide]",> 10000 nM
13,"O=C(NO)c1cn2c(n1)CN(C(=O)NCc1ccccc1)CC2 [Compound I-123, N7-benzyl-N2-hydroxy-5,6-dihydroimidazo[1,2-a]pyrazine-2,7(8H)-dicarboxamide]",1000 to 10000 nM
14,"O=C(NO)c1cc2n(c1)CCCN(C(=O)C1CCCC1)C2 [Compound I-19, 2-(cyclopentylcarbonyl)-N-hydroxy-2,3,4,5-tetrahydro-1H-pyrrolo[1,2-a][1,4]diazepine-8-carboxamide]",> 10000 nM
15,"O=C(NO)c1cc2n(n1)CCN(C(=O)C1(C(F)(F)F)CC1)C2 [Compound I-8, N-hydroxy-5-{[1-(trifluoromethyl)cyclopropyl]carbonyl}-4,5,6,7-tetrahydropyrazolo[1,5-a]pyrazine-2-carboxamide]",1000 to 10000 nM
16,"O=C(NO)c1cc2n(c1)CCCN(C(=O)c1csc3ccccc13)C2 [Compound I-96, 2-(1-benzothien-3-ylcarbonyl)-N-hydroxy-2,3,4,5-tetrahydro-1H-pyrrolo[1,2-a][1,4]diazepine-8-carboxamide]",1000 to 10000 nM
17,"O=C(NO)c1cc2n(n1)CCCN(C(=O)C13CC4CC(CC(C4)C1)C3)C2 [Compound I-72, 5-(1-adamantylcarbonyl)-N-hydroxy-5,6,7,8-tetrahydro-4H-pyrazolo[1,5-a][1,4]diazepine-2-carboxamide]",1000 to 10000 nM
18,"CC1(C(=O)N2CCCn3cc(C(=O)NO)cc3C2)CCCCC1 [Compound I-74, N-hydroxy-2-[(1-methylcyclohexyl)carbonyl]-2,3,4,5-tetrahydro-1H-pyrrolo[1,2-a][1,4]diazepine-8-carboxamide]",1000 to 10000 nM
19,"Cc1nc(C(=O)N2CCn3cc(C(=O)NO)nc3C2)cs1 [Compound I-55, N-hydroxy-7-[(2-methyl-1,3-thiazol-4-yl)carbonyl]-5,6,7,8-tetrahydroimidazo[1,2-a]pyrazine-2-carboxamide]",1000 to 10000 nM
20,"CC(=O)c1c(C)[nH]c(C(=O)N2CCn3cc(C(=O)NO)cc3C2)c1C [Compound I-15, 2-[(4-acetyl-3,5-dimethyl-1H-pyrrol-2-yl)carbonyl]-N-hydroxy-1,2,3,4-tetrahydropyrrolo[1,2-a]pyrazine-7-carboxamide]",1000 to 10000 nM
